In the experiment the test system is microfilariae of Dirofilaria immitis. Kind of experiment: Dirofilaria immitis, Microfilaria (DiMF) Assay. The class given is cell-based. The settings on record: read-out: D. immitis activity level (IC50 or MED). The procedure:
Heartworm Screen Dirofilaria immitis (D. immitis)
Dirofilaria immitis, Microfilaria (DiMF) Assay.
Compounds were dissolved and serially diluted in DMSO. Aliquots were spotted to the empty wells of assay plates. Media and microfilariae of Dirofilaria immitis were added to each well to dilute the test compounds to the desired concentrations. Assay plates were incubated for approximately 72 hours, and the larvae in each well were observed microscopically for drug effect. Microfilariae in each well were assessed subjectively for survival or paralysis, and results were reported as Minimum Effective Dose (MED).
Active and selective (DiL4 vs. DiMF potency) example compounds were subsequently evaluated in heartworm positive dog studies to correlate the in vitro selectivity profile with in vivo effects on circulating microfilariae.
On to `CC(C)Oc1cnc(-c2nsc(Nc3ncccc3N3CCCC3=O)n2)cc1C(F)(F)F` [Compound 179, 1-(2-(3-(5-isopropoxy-4-(trifluoromethyl)pyridin-2-yl)-1,2,4-thiadiazol-5-ylamino)pyridin-3-yl)pyrrolidin-2-one], for which the IC50 was 500 to 5000 nM.

On to `COc1ccnc(-c2nsc(Nc3cc(C(F)(F)F)c(C(C)C)cn3)n2)c1` [Compound 182, N-(5-iso-propyl-4-(trifluoro-methyl)pyridin-2-yl)-3-(4-methoxy-pyridin-2-yl)-1,2,4-thiadiazol-5-amine], for which the IC50 was < 200 nM.

Take `COc1ccc(Nc2nc(-c3cc(OC4CCCCC4)ccn3)ns2)nc1` [Compound 183, 3-(4-(cyclo-hexyloxy)pyridin-2-yl)-N-(5-methoxypyridin-2-yl)-1,2,4-thiadiazol-5-amine]: the half-inhibitory concentration (IC50) is < 200 nM.

As to `CC(C)Oc1cnc(-c2nsc(Nc3ncccc3N(C)C(=O)C3CC3)n2)cc1C(F)(F)F` [Compound 186, N-(2-(3-(5-isopropoxy-4-(trifluoro-methyl)pyridin-2-yl)-1,2,4-thiadiazol-5-ylamino)pyridin-3-yl)-N-methylcyclo-propanecarbox-amide], the IC50 was 200 to 500 nM.

For `CC(=O)N(C)c1cccnc1Nc1nc(-c2cc(C(F)(F)F)c(OC(C)C)cn2)ns1` [Compound 187, N-(2-(3-(5-isopropoxy-4-(trifluoro-methyl)pyridin-2-yl)-1,2,4-thiadiazol-5-ylamino)pyridin-3-yl)-N-methylacetamide], the 50% inhibitory concentration (IC50) lay within 200 to 500 nM.

Turning to `CC(C)Oc1ccc(-c2nsc(Nc3ncccc3C(=O)N(C)C)n2)nc1` [Compound 188, 2-(3-(5-isoprop-oxypyridin-2-yl)-1,2,4-thiadiazol-5-ylamino)-N,N-dimethyl nicotinamide], the half-inhibitory concentration (IC50) lay in the range of 500 to 5000 nM.

With `CC(C)Oc1ccc(-c2nsc(Nc3ncccc3C(=O)N3CCCC3)n2)nc1` [Compound 190, (2-(3-(5-isoprop-oxypyridin-2-yl)-1,2,4-thiadiazol-5-ylamino)pyridin-3-yl) (pyrrolidin-1-yl) methanone], the IC50 is 500 to 5000 nM.

Take `CC(C)Oc1ccc(-c2nsc(Nc3ncccc3C(=O)N(C)C3CC(F)(F)C3)n2)nc1` [Compound 191, N-(3,3-difluoro-cyclobutyl)-2-(3-(5-isoprop-oxypyridin-2-yl)-1,2,4-thiadiazol-5-ylamino)-N-methyl-nicotinamide]: the concentration for half-maximal inhibition (IC50) is 500 to 5000 nM.

`CC(C)Oc1ccc(-c2nsc(Nc3ncc(C(=O)NC4CC(F)(F)C4)cc3C(C)C)n2)nc1` [Compound 195, N-(3,3-difluoro-cyclobutyl)-6-(3-(5-isoprop-oxypyridin-2-yl)-1,2,4-thiadiazol-5-ylamino)-5-isopropyl-nicotinamide]: the half-inhibitory concentration (IC50) was in the range of 500 to 5000 nM.

Turning to `COC(=O)c1cc(-c2nsc(Nc3ncccc3C)n2)ncc1OC(C)C` [Compound 196, methyl 5-isopropoxy-2-(5-(3-methylpyridin-2-ylamino)-1,2,4-thiadiazol-3-yl)isonicotinate], the IC50 is 200 to 500 nM.

Regarding `COC(=O)c1cc(-c2nsc(Nc3ncccc3C(C)C)n2)ncc1OC(C)C` [Compound 197, methyl 5-isopropoxy-2-(5-(3-isopropylpyridin-2-ylamino)-1,2,4-thiadiazol-3-yl)isonicotinate], the IC50 was < 200 nM.

Turning to `CC(C)Oc1cnc(-c2nsc(Nc3ncccc3C(C)C)n2)cc1C(N)=O` [Compound 198, 5-isopropoxy-2-(5-(3-isopropylpyridin-2-ylamino)-1,2,4-thiadiazol-3-yl)isonicotin-amide], the concentration for half-maximal inhibition (IC50) fell in the range of 500 to 5000 nM.

Consider `Cc1cccnc1Nc1nc(-c2cc(C#N)c(OC(C)C)cn2)ns1` [Compound 200, 5-isopropoxy-2-(5-(3-methylpyridin-2-ylamino)-1,2,4-thiadiazol-3-yl)isonicotino-nitrile], for which the IC50 was 200 to 500 nM.

For the compound `CC(C)Oc1cnc(-c2nsc(Nc3ncccc3C(C)C)n2)cc1C#N` [Compound 201, 5-isopropoxy-2-(5-(3-isopropyl-pyridin-2-ylamino)-1,2,4-thiadiazol-3-yl)isonicotino-nitrile], the IC50 was < 200 nM.

For `CC(=O)N(C)c1cccnc1Nc1nc(-c2cc3c(cn2)N(C)CC3)ns1` [Compound 202, N-methyl-N-(2-(3-(1-methyl-2,3-dihydro-1H-pyrrolo[2,3-c]pyridin-5-yl)-1,2,4-thiadiazol-5-ylamino)pyridin-3-yl)acetamide], the IC50 is 500 to 5000 nM.

For the compound `CC(=O)N(C)c1cccnc1Nc1nc(-c2ccc(OC3CCN(C(C)C)CC3(F)F)cn2)ns1` (stereo not shown) [Compound 203, N-(2-(3-(5-(3,3-difluoro-1-isopropyl-piperidin-4-yloxy)pyridin-2-yl)-1,2,4-thiadiazol-5-ylamino)pyridin-3-yl)-N-methylacetamide], the IC50 fell in the range of 500 to 5000 nM.

Take `O=C1CCCN1c1cccnc1Nc1nc(-c2ccc(NC34CC(C3)C4)cn2)ns1` [Compound 204, 1-(2-(3-(5-(bicyclo [1.1.1]pentan-1-ylamino)pyridin-2-yl)-1,2,4-thiadiazol-5-ylamino)pyridin-3-yl)pyrrolidin-2-one]: the IC50 was 500 to 5000 nM.

Consider `CC(=O)N(c1cccnc1Nc1nc(-c2ccc(OC(C)C)cn2)ns1)C(C)C` [Compound 205, N-(2-(3-(5-isopropoxy-pyridin-2-yl)-1,2,4-thiadiazol-5-ylamino)pyridin-3-yl)-N-isopropy-lacetamide], for which the IC50 was in the range of 500 to 5000 nM.

Regarding `CC(=O)N(C)c1cccnc1Nc1nc(-c2cc3c(cn2)N(C(C)C)CC3)ns1` [Compound 206, N-(2-(3-(1-isopropyl-2,3-dihydro-1H-pyrrolo[2,3-c]pyridin-5-yl)-1,2,4-thiadiazol-5-ylamino)pyridin-3-yl)-N-methylacetamide], the IC50 is < 200 nM.

For the compound `CC(=O)N(C)c1cccnc1Nc1nc(-c2ccc(NC34CC(C3)C4)cn2)ns1` [Compound 207, N-(2-(3-(5-(bicyclo [1.1.1]pentan-1-ylamino)pyridin-2-yl)-1,2,4-thiadiazol-5-ylamino)pyridin-3-yl)-N-methylacetamide], the IC50 was in the range of 500 to 5000 nM.

With `CC(=O)N(C)c1cccnc1Nc1nc(-c2cc(C)ccn2)ns1` [Compound 208, N-methyl-N-(2-(3-(4-methylpyridin-2-yl)-1,2,4-thiadiazol-5-ylamino)pyridin-3-yl)acetamide], the IC50 was 500 to 5000 nM.

For the compound `COc1ccc(-c2nsc(Nc3ccc(C(F)(F)F)cn3)n2)nc1` [Compound 209, 3-(5-methoxy-pyridin-2-yl)-N-(5-(trifluoromethyl)pyridin-2-yl)-1,2,4-thiadiazol-5-amine], the IC50 was 500 to 5000 nM.

In the case of `COc1cccnc1-c1nsc(Nc2cc(C(F)(F)F)c(C(C)C)cn2)n1` [Compound 210, N-(5-isopropyl-4-(trifluoromethyl)pyridin-2-yl)-3-(3-methoxy-pyridin-2-yl)-1,2,4-thiadiazol-5-amine], the IC50 was in the range of 200 to 500 nM.

As to `FC(F)(F)c1ccc(Nc2nc(-c3cc(OC4CCCCC4)ccn3)ns2)nc1` [Compound 213, 3-(4-(cyclo-hexyloxy)pyridin-2-yl)-N-(5-(trifluoromethyl)pyridin-2-yl)-1,2,4-thiadiazol-5-amine], the IC50 was < 200 nM.

Consider `COc1ccc(-c2nsc(Nc3ccc(OC(C)C)cn3)n2)nc1` [Compound 215, N-(5-isoprop-oxypyridin-2-yl)-3-(5-methoxy-pyridin-2-yl)-1,2,4-thiadiazol-5-amine], for which the IC50 was in the range of 500 to 5000 nM.

The record behind these values is patent publication US11505548B2, “Heterocyclic compounds and their use for treatment of helminthic infections and diseases” (Celgene Corporation, priority 2019, dated 2022).
